Measurements as given in patent US6355799B1, “Substituted benzene compounds, process for their preparation, and herbicidal and defoliant compositions containing them” (ISK Americas Incorporated, priority 1997, dated 2002).

Assays:
Assay type in all cases: in vivo
[1] = system: upland rice (Oryza sp., var. Tebonnet, RICE); assay: Post-emerge test, crop safety; details: post-emerge, 14 days after application, rating scale 0-100
In short: (§1)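 Rating: 0–100 visual injury, 14 DAA. Application: acetone, 187 l/ha, 15–1000 g ai/ha, flat-fan track sprayer with nozzle 40–45 cm above soil or canopy. Post-emerge runs used 0.25% v/v surfactant on 2–3 leaf plants.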

[2] = system: field corn (Zea mays L., var. Dekalb 535, CORN); assay: Post-emerge test, crop safety; details: post-emerge, 14 days after application, rating scale 0-100
In short: as §1

[3] = system: redroot pigweed (Amaranthus retroflexus, AMARE); assay: Pre-emerge test, greenhouse herbicide activity screening; details: for Pre-emerge Herbicidal Activity, phytotoxicity rating (0-100), AMARE: rated 14 days after application, 0 = no damage, 100 = complete death; for phytotoxicity rating AMARE: pre-emerge, 14 days after application, scale 0-100
In short: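 Sandy loam pots; pre-emerge: sown 1 d pre-spray, surface-watered after, then bottom-watered. Post-emerge: sown 8–21 d before, 2–3 leaf stage, + 0.25% v/v NIS, bottom-watered. Acetone, 187 l/ha track spray, 15–1000 g ai/ha. 0–100 injury score, day 14.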

[4] = system: upland rice (Oryza sp., var. Tebonnet, RICE); assay: Pre-emerge test, crop safety; details: for Pre-emerge phytotoxicity rating (0-100), crop damage, RICE: rated 14 days after application, 0 = no damage, 100 = complete death; for phytotoxicity rating RICE (crop damage): pre-emerge, 14 days after application, scale 0-100
In short: (§2)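 Fourteen days after spraying, crop and weed injury was graded visually from 0, no effect, to 100, every plant dead. Test substances were dissolved in acetone and applied at 15–1000 g ai/ha with a flat-fan nozzle. Application was either pre-emergence, one day after sowing, or post-emergence at the 2–3 leaf stage.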

[5] = system: field corn (Zea mays L., var. Dekalb 535, CORN); assay: Pre-emerge test, crop safety; details: for Pre-emerge phytotoxicity rating (0-100), crop damage, CORN: rated 14 days after application, 0 = no damage, 100 = complete death; for phytotoxicity rating CORN (crop damage): pre-emerge, 14 days after application, scale 0-100
In short: as §2

[6] = system: ivyleaf morningglory (Ipomoea hederacea, IPOHE); assay: Pre-emerge test, greenhouse herbicide activity screening; details: for Pre-emerge Herbicidal Activity, phytotoxicity rating (0-100), IPOHE: rated 14 days after application, 0 = no damage, 100 = complete death; for phytotoxicity rating IPOHE: pre-emerge, 14 days after application, scale 0-100
In short: (§3)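 Compounds in acetone were track-sprayed at 15–1000 g ai/ha: pre-emergence onto soil sown the previous day, then top-watered to incorporate and later bottom-watered; post-emergence onto 2–3 leaf plants with 0.25% v/v surfactant, bottom-watered only. Ratings on a 0–100 phytotoxicity scale were taken at day 14.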

[7] = system: sicklepod (Cassia obtusifolia, CASOB); assay: as above; details: for Pre-emerge Herbicidal Activity, phytotoxicity rating (0-100), CASOB: rated 14 days after application, 0 = no damage, 100 = complete death; for phytotoxicity rating CASOB: pre-emerge, 14 days after application, scale 0-100
In short: as §3

[8] = system: lambsquarters (Chenopodium album, CHEAL); assay: as above; details: for Pre-emerge Herbicidal Activity, phytotoxicity rating (0-100), CHEAL: rated 14 days after application, 0 = no damage, 100 = complete death; for phytotoxicity rating CHEAL: pre-emerge, 14 days after application, scale 0-100
In short: as §3

[9] = system: barnyardgrass (Echinochloa crus-galli, ECHCG); assay: as above; details: for Pre-emerge Herbicidal Activity, phytotoxicity rating (0-100), ECHCG: rated 14 days after application, 0 = no damage, 100 = complete death; for phytotoxicity rating ECHCG: pre-emerge, 14 days after application, scale 0-100
In short: as §3

[10] = system: johnsongrass (Sorghum halepense, SORHA); assay: as above; details: for Pre-emerge Herbicidal Activity, phytotoxicity rating (0-100), SORHA: rated 14 days after application, 0 = no damage, 100 = complete death; for phytotoxicity rating SORHA: pre-emerge, 14 days after application, scale 0-100
In short: as §3

[11] = system: large crabgrass (Digitaria sanguinalis, DIGSA); assay: as above; details: for Pre-emerge Herbicidal Activity, phytotoxicity rating (0-100), DIGSA: rated 14 days after application, 0 = no damage, 100 = complete death; for phytotoxicity rating DIGSA: pre-emerge, 14 days after application, scale 0-100
In short: as §3

[12] = system: velvetleaf (Abutilon theophrasti, ABUTH); assay: as above; details: for Pre-emerge Herbicidal Activity, phytotoxicity rating (0-100), ABUTH: rated 14 days after application, 0 = no damage, 100 = complete death; for phytotoxicity rating ABUTH: pre-emerge, 14 days after application, scale 0-100
In short: as §3

[13] = system: green foxtail (Setaria viridis, SETVI); assay: as above; details: for Pre-emerge Herbicidal Activity, phytotoxicity rating (0-100), SETVI: rated 14 days after application, 0 = no damage, 100 = complete death; for phytotoxicity rating SETVI: pre-emerge, 14 days after application, scale 0-100
In short: as §3

[14] = system: ivyleaf morningglory (Ipomoea hederacea, IPOHE); assay: Post-emerge test, greenhouse herbicide activity screening; details: post-emerge, 14 days after application, rating scale 0-100
In short: (§4)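 Visual ratings on a 0-100 scale (0 no damage, 100 all plants dead) were taken at 14 days after treatment. Rates of 15-1000 g ai/ha in acetone, 187 l/ha, were sprayed onto soil one day after planting (pre-emerge) or onto 2-3 leaf plants with 0.25% v/v surfactant (post-emerge).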

[15] = system: redroot pigweed (Amaranthus retroflexus, AMARE); assay: as above; details: post-emerge, 14 days after application, rating scale 0-100
In short: as §4

[16] = system: sicklepod (Cassia obtusifolia, CASOB); assay: as above; details: post-emerge, 14 days after application, rating scale 0-100
In short: as §4

[17] = system: lambsquarters (Chenopodium album, CHEAL); assay: as above; details: post-emerge, 14 days after application, rating scale 0-100
In short: as §4

[18] = system: barnyardgrass (Echinochloa crus-galli, ECHCG); assay: as above; details: post-emerge, 14 days after application, rating scale 0-100
In short: as §4

[19] = system: johnsongrass (Sorghum halepense, SORHA); assay: as above; details: post-emerge, 14 days after application, rating scale 0-100
In short: as §4

[20] = system: large crabgrass (Digitaria sanguinalis, DIGSA); assay: as above; details: post-emerge, 14 days after application, rating scale 0-100
In short: as §4

[21] = system: velvetleaf (Abutilon theophrasti, ABUTH); assay: as above; details: post-emerge, 14 days after application, rating scale 0-100
In short: as §4

[22] = system: green foxtail (Setaria viridis, SETVI); assay: as above; details: post-emerge, 14 days after application, rating scale 0-100
In short: as §4

Compound: COc1c(Cl)cc(F)c(-n2c(=O)cc(C(F)(F)F)n(C)c2=O)c1NC(=O)C=Cc1ccccc1 [2-78]
- phytotoxicity rating RICE ([1]; 63 g ai/ha): 50
- phytotoxicity rating RICE ([1]; 250 g ai/ha): 65
- phytotoxicity rating CORN ([2]; 63 g ai/ha): 25
- phytotoxicity rating CORN ([2]; 250 g ai/ha): 30
- Pre-emerge Herbicidal Activity, phytotoxicity rating (0-100), AMARE ([3]; 63 g ai/ha): 100
- Pre-emerge Herbicidal Activity, phytotoxicity rating (0-100), AMARE ([3]; 250 g ai/ha): 100
- Pre-emerge phytotoxicity rating (0-100), crop damage, RICE ([4]; 63 g ai/ha): 40
- Pre-emerge phytotoxicity rating (0-100), crop damage, RICE ([4]; 250 g ai/ha): 95
- Pre-emerge phytotoxicity rating (0-100), crop damage, CORN ([5]; 63 g ai/ha): 0
- Pre-emerge phytotoxicity rating (0-100), crop damage, CORN ([5]; 250 g ai/ha): 10
- Pre-emerge Herbicidal Activity, phytotoxicity rating (0-100), IPOHE ([6]; 63 g ai/ha): 20
- Pre-emerge Herbicidal Activity, phytotoxicity rating (0-100), IPOHE ([6]; 250 g ai/ha): 100
- Pre-emerge Herbicidal Activity, phytotoxicity rating (0-100), CASOB ([7]; 63 g ai/ha): 100
- Pre-emerge Herbicidal Activity, phytotoxicity rating (0-100), CASOB ([7]; 250 g ai/ha): 100
- Pre-emerge Herbicidal Activity, phytotoxicity rating (0-100), CHEAL ([8]; 63 g ai/ha): 100
- Pre-emerge Herbicidal Activity, phytotoxicity rating (0-100), CHEAL ([8]; 250 g ai/ha): 100
- Pre-emerge Herbicidal Activity, phytotoxicity rating (0-100), ECHCG ([9]; 63 g ai/ha): 10
- Pre-emerge Herbicidal Activity, phytotoxicity rating (0-100), ECHCG ([9]; 250 g ai/ha): 100
- Pre-emerge Herbicidal Activity, phytotoxicity rating (0-100), SORHA ([10]; 63 g ai/ha): 10
- Pre-emerge Herbicidal Activity, phytotoxicity rating (0-100), SORHA ([10]; 250 g ai/ha): 80
- Pre-emerge Herbicidal Activity, phytotoxicity rating (0-100), DIGSA ([11]; 63 g ai/ha): 30
- Pre-emerge Herbicidal Activity, phytotoxicity rating (0-100), DIGSA ([11]; 250 g ai/ha): 100
- Pre-emerge Herbicidal Activity, phytotoxicity rating (0-100), ABUTH ([12]; 63 g ai/ha): 100
- Pre-emerge Herbicidal Activity, phytotoxicity rating (0-100), ABUTH ([12]; 250 g ai/ha): 100
- Pre-emerge Herbicidal Activity, phytotoxicity rating (0-100), SETVI ([13]; 63 g ai/ha): 90
- Pre-emerge Herbicidal Activity, phytotoxicity rating (0-100), SETVI ([13]; 250 g ai/ha): 100
- phytotoxicity rating IPOHE ([14]; 63 g ai/ha): 80
- phytotoxicity rating IPOHE ([14]; 250 g ai/ha): 100
- phytotoxicity rating AMARE ([15]; 63 g ai/ha): 100
- phytotoxicity rating AMARE ([15]; 250 g ai/ha): 100
- phytotoxicity rating CASOB ([16]; 63 g ai/ha): 70
- phytotoxicity rating CASOB ([16]; 250 g ai/ha): 100
- phytotoxicity rating CHEAL ([17]; 63 g ai/ha): 100
- phytotoxicity rating CHEAL ([17]; 250 g ai/ha): 100
- phytotoxicity rating ECHCG ([18]; 63 g ai/ha): 10
- phytotoxicity rating ECHCG ([18]; 250 g ai/ha): 10
- phytotoxicity rating SORHA ([19]; 63 g ai/ha): 0
- phytotoxicity rating SORHA ([19]; 250 g ai/ha): 10
- phytotoxicity rating DIGSA ([20]; 63 g ai/ha): 0
- phytotoxicity rating DIGSA ([20]; 250 g ai/ha): 0
- phytotoxicity rating ABUTH ([21]; 63 g ai/ha): 100
- phytotoxicity rating ABUTH ([21]; 250 g ai/ha): 100
- phytotoxicity rating SETVI ([22]; 63 g ai/ha): 30
- phytotoxicity rating SETVI ([22]; 250 g ai/ha): 30

Compound: COc1c(Br)cc(F)c(-n2c(=O)cc(C(F)(F)F)n(C)c2=O)c1N(C(=O)C=Cc1ccccc1)C(=O)C=Cc1ccccc1 [2-178]
- RICE phytotoxicity rating (crop damage) ([1]; 63 g ai/ha): 0
- RICE phytotoxicity rating (crop damage) ([1]; 250 g ai/ha): 0
- CORN phytotoxicity rating (crop damage) ([2]; 63 g ai/ha): 0
- CORN phytotoxicity rating (crop damage) ([2]; 250 g ai/ha): 0
- phytotoxicity rating AMARE ([3]; 63 g ai/ha): 0
- phytotoxicity rating AMARE ([3]; 250 g ai/ha): 0
- phytotoxicity rating RICE (crop damage) ([4]; 63 g ai/ha): 0
- phytotoxicity rating RICE (crop damage) ([4]; 250 g ai/ha): 0
- phytotoxicity rating CORN (crop damage) ([5]; 63 g ai/ha): 0
- phytotoxicity rating CORN (crop damage) ([5]; 250 g ai/ha): 0
- phytotoxicity rating IPOHE ([6]; 63 g ai/ha): 0
- phytotoxicity rating IPOHE ([6]; 250 g ai/ha): 0
- phytotoxicity rating CASOB ([7]; 63 g ai/ha): 0
- phytotoxicity rating CASOB ([7]; 250 g ai/ha): 0
- phytotoxicity rating CHEAL ([8]; 63 g ai/ha): 20
- phytotoxicity rating CHEAL ([8]; 250 g ai/ha): 0
- phytotoxicity rating ECHCG ([9]; 63 g ai/ha): 0
- phytotoxicity rating ECHCG ([9]; 250 g ai/ha): 0
- phytotoxicity rating SORHA ([10]; 63 g ai/ha): 0
- phytotoxicity rating SORHA ([10]; 250 g ai/ha): 0
- phytotoxicity rating DIGSA ([11]; 63 g ai/ha): 0
- phytotoxicity rating DIGSA ([11]; 250 g ai/ha): 0
- phytotoxicity rating ABUTH ([12]; 63 g ai/ha): 0
- phytotoxicity rating ABUTH ([12]; 250 g ai/ha): 0
- phytotoxicity rating SETVI ([13]; 63 g ai/ha): 0
- phytotoxicity rating SETVI ([13]; 250 g ai/ha): 0
- IPOHE phytotoxicity rating ([14]; 63 g ai/ha): 30
- IPOHE phytotoxicity rating ([14]; 250 g ai/ha): 20
- AMARE phytotoxicity rating ([15]; 63 g ai/ha): 50
- AMARE phytotoxicity rating ([15]; 250 g ai/ha): 70
- CASOB phytotoxicity rating ([16]; 63 g ai/ha): 0
- CASOB phytotoxicity rating ([16]; 250 g ai/ha): 0
- CHEAL phytotoxicity rating ([17]; 63 g ai/ha): 30
- CHEAL phytotoxicity rating ([17]; 250 g ai/ha): 40
- ECHCG phytotoxicity rating ([18]; 63 g ai/ha): 0
- ECHCG phytotoxicity rating ([18]; 250 g ai/ha): 0
- SORHA phytotoxicity rating ([19]; 63 g ai/ha): 0
- SORHA phytotoxicity rating ([19]; 250 g ai/ha): 0
- DIGSA phytotoxicity rating ([20]; 63 g ai/ha): 0
- DIGSA phytotoxicity rating ([20]; 250 g ai/ha): 0
- ABUTH phytotoxicity rating ([21]; 63 g ai/ha): 40
- ABUTH phytotoxicity rating ([21]; 250 g ai/ha): 50
- SETVI phytotoxicity rating ([22]; 63 g ai/ha): 0
- SETVI phytotoxicity rating ([22]; 250 g ai/ha): 0
